Source: patent publication US10245275B2 (ViiV HEALTHCARE UK (NO.4) LIMITED, priority 2014, dated 2019)
Where two headings read alike, the source gives them in different places.

Assays:
[1] = tested on: HIV-1 NL4-3 gag A364V virus; experiment: microbe, parasite or virus in culture; assay type: cell-based
In short: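 Recombinant NL4-3 reporter virus with Renilla luciferase replacing part of nef, made by transfection of 293T cells. MT-2 cells infected for 4-5 days with serial inhibitor dilutions; antiviral activity quantified by luciferase activity.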

[2] = tested on: WT (wild-type HIV virus; recombinant NL4-3 virus); experiment: microbe, parasite or virus in culture; assay type: cell-based, HIV-1
In short: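 MT-2 cells infected 4-5 days with NL4-3 carrying Renilla luciferase in place of part of nef (Gag P373S), virus made by 293T transfection, with serial inhibitor dilutions. Antiviral activity read as luciferase activity by a modified dual-luciferase read-out.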

[3] = Human immunodeficiency virus 1, NL43, MT2, read-out: A364V (EC50, uM), Table 1 regular screen, MT-2 cells, luciferase readout
[4] = Human immunodeficiency virus 1, NL43, MT2, read-out: WT (EC50, uM), Table 1 regular screen, MT-2 cells, luciferase readout
[5] = Human immunodeficiency virus 1, NL43, MT2, read-out: A364V (EC50, uM), Table 1 regular screen, class symbol
[6] = Human immunodeficiency virus 1, NL43, MT2, read-out: WT (EC50, uM), Table 1 regular screen, class symbol

## C=C(C)[C@@H]1CC[C@]2(NCC(=O)N3CCC(C)(O)CC3)CC[C@]3(C)[C@H](CC[C@@H]4[C@@]5(C)CC=C(C6=CC[C@](CF)(C(=O)O)CC6)C(C)(C)[C@@H]5CC[C@]43C)[C@@H]12 [Example 30, (S)-1-(fluoromethyl)-4-((1R,3aS,5aR,5bR,7aR,11aS,11bR,13aR,13bR)-3a-((2-(4-hydroxy-4-methylpiperidin-1-yl)-2-oxoethyl)amino)-5a,5b,8,8,11a-pentamethyl-1-(prop-1-en-2-yl)-2,3,3a,4,5,5a,5b,6,7,7a,8,11,11a,11b,12,13,13a,13b-octadecahydro-1H-cyclopenta[a]chrysen-9-yl)cyclohex-3-enecarboxylic acid]
[1]; [3]
  EC50: 0.551 µM
[2]; [4]
  EC50: 0.00298 µM

## C=C(C)[C@@H]1CC[C@]2(NCCC3CCS(=O)(=O)CC3)CC[C@]3(C)[C@H](CC[C@@H]4[C@@]5(C)CC=C(C6=CC[C@](CF)(C(=O)O)CC6)C(C)(C)[C@@H]5CC[C@]43C)[C@@H]12 [Example 7, (S)-4-((1R,3aS,5aR,5bR,7aR,11aS,11bR,13aR,13bR)-3a-((2-(1,1-dioxidotetrahydro-2H-thiopyran-4-yl)ethyl)amino)-5a,5b,8,8,11a-pentamethyl-1-(prop-1-en-2-yl)-2,3,3a,4,5,5a,5b,6,7,7a,8,11,11a,11b,12,13,13a,13b-octadecahydro-1H-cyclopenta[a]chrysen-9-yl)-1-(fluoromethyl)cyclohex-3-enecarboxylic acid]
[1]; [5]
  EC50: > 0.05 µM
[2]; [6]
  EC50: < 0.05 µM

## C=C(C)[C@@H]1CC[C@]2(NCCN3C[C@@H]4CC3CS4(=O)=O)CC[C@]3(C)[C@H](CC[C@@H]4[C@@]5(C)CC=C(C6=CC[C@](CF)(C(=O)O)CC6)C(C)(C)[C@@H]5CC[C@]43C)[C@@H]12 (stereo in doubt) [Example 4, (S)-4-((1R,3aS,5aR,5bR,7aR,11aS,11bR,13aR,13bR)-3a-((2-((1S,4S)-2,2-dioxido-2-thia-5-azabicyclo[2.2.1]heptan-5-yl)ethyl)amino)-5a,5b, 8,8,11a-pentamethyl-1-(prop-1-en-2-yl)-2,3,3a,4,5,5a,5b,6,7,7a,8,11,11a,11b,12,13,13a,13b-octadecahydro-1H-cyclopenta[a]chrysen-9-yl)-1-(fluoromethyl)cyclohex-3-enecarboxylic acid]
[1]; [3]
  EC50: 0.0392 µM
[2]; [4]
  EC50: 0.00141 µM

## CC(C)[C@@H]1CC[C@]2(NCCN3CCS(=O)(=O)CC3)CC[C@]3(C)[C@H](CC[C@@H]4[C@@]5(C)CC=C(C6CCC(CF)(C(=O)O)CC6)C(C)(C)[C@@H]5CC[C@]43C)[C@@H]12 (stereo partly drawn) [Example 23, 4-((1S,3aS,5aR,5bR,7aR,11aS,11bR,13aR,13bR)-3a-((2-(1,1-dioxidothiomorpholino)ethyl)amino)-1-isopropyl-5a,5b, 8,8,11a-pentamethyl-2,3,3a,4,5,5a,5b,6,7,7a,8,11,11a,11b,12,13,13a,13b-octadecahydro-1H-cyclopenta[a]chrysen-9-yl)-1-(fluoromethyl)cyclohexanecarboxylic acid]
[1]; [5]
  EC50: > 0.05 µM
[2]; [6]
  EC50: < 0.05 µM

## C=C(C)[C@@H]1CC[C@]2(NCC(C)(C)O)CC[C@]3(C)[C@H](CC[C@@H]4[C@@]5(C)CC=C(C6=CC[C@](CF)(C(=O)O)CC6)C(C)(C)[C@@H]5CC[C@]43C)[C@@H]12 [Example 2-2, (S)-1-(fluoromethyl)-4-((1R,3aS,5aR,5bR,7aR,11aS,11bR,13aR,13bR)-3a-((2-hydroxy-2-methylpropyl)amino)-5a,5b,8,8,11a-pentamethyl-1-(prop-1-en-2-yl)-2,3,3a,4,5,5a,5b,6,7,7a,8,11,11a,11b,12,13,13a,13b-octadecahydro-1H-cyclopenta[a]chrysen-9-yl)cyclohex-3-enecarboxylic acid]
[1]; [5]
  EC50: > 0.05 µM
[2]; [6]
  EC50: < 0.05 µM

## C=C(C)[C@@H]1CC[C@]2(NCCC3(O)CCC3)CC[C@]3(C)[C@H](CC[C@@H]4[C@@]5(C)CC=C(C6=CC[C@](CF)(C(=O)O)CC6)C(C)(C)[C@@H]5CC[C@]43C)[C@@H]12 [Example 2-9, (S)-1-(fluoromethyl)-4-((1R,3aS,5aR,5bR,7aR,11aS,11bR,13aR,13bR)-3a-((2-(1-hydroxycyclobutyl)ethyl)amino)-5a,5b,8,8,11a-pentamethyl-1-(prop-1-en-2-yl)-2,3,3a,4,5,5a,5b,6,7,7a,8,11,11a,11b,12,13,13a,13b-octadecahydro-1H-cyclopenta[a]chrysen-9-yl)cyclohex-3-enecarboxylic acid]
[1]; [5]
  EC50: > 0.05 µM
[2]; [6]
  EC50: < 0.05 µM

## C=C(C)[C@@H]1CC[C@]2(NCCN3CCN(C)C3=O)CC[C@]3(C)[C@H](CC[C@@H]4[C@@]5(C)CC=C(C6=CC[C@](CF)(C(=O)O)CC6)C(C)(C)[C@@H]5CC[C@]43C)[C@@H]12 [Example 2-26, (S)-1-(fluoromethyl)-4-((1R,3aS,5aR,5bR,7aR,11aS,11bR,13aR,13bR)-5a,5b,8,8,11a-pentamethyl-3a-((2-(3-methyl-2-oxoimidazolidin-1-yl)ethyl)amino)-1-(prop-1-en-2-yl)-2,3,3a,4,5,5a,5b,6,7,7a,8,11,11a,11b,12,13,13a,13b-octadecahydro-1H-cyclopenta[a]chrysen-9-yl)cyclohex-3-enecarboxylic acid]
[1]; [5]
  EC50: > 0.05 µM
[2]; [6]
  EC50: < 0.05 µM

## C=C(C)[C@@H]1CC[C@]2(NCCC3CCOCC3)CC[C@]3(C)[C@H](CC[C@@H]4[C@@]5(C)CC=C(C6=CC[C@](CF)(C(=O)O)CC6)C(C)(C)[C@@H]5CC[C@]43C)[C@@H]12 [Example 9, (S)-1-(fluoromethyl)-4-((1R,3aS,5aR,5bR,7aR,11aS,11bR,13aR,13bR)-5a,5b,8,8,11a-pentamethyl-1-(prop-1-en-2-yl)-3a-((2-(tetrahydro-2H-pyran-4-yl)ethyl)amino)-2,3,3a,4,5,5a,5b,6,7,7a,8,11,11a,11b,12,13,13a,13b-octadecahydro-1H-cyclopenta[a]chrysen-9-yl)cyclohex-3-enecarboxylic acid]
[1]; [5]
  EC50: > 0.05 µM
[2]; [6]
  EC50: < 0.05 µM

## C=C(C)[C@@H]1CC[C@]2(NCCN3CCCC3=O)CC[C@]3(C)[C@H](CC[C@@H]4[C@@]5(C)CC=C(C6=CC[C@](CF)(C(=O)O)CC6)C(C)(C)[C@@H]5CC[C@]43C)[C@@H]12 [Example 20, (S)-1-(fluoromethyl)-4-((1R,3aS,5aR,5bR,7aR,11aS,11bR,13aR,13bR)-5a,5b, 8,8,11a-pentamethyl-3a-((2-(2-oxopyrrolidin-1-yl)ethyl)amino)-1-(prop-1-en-2-yl)-2,3,3a,4,5,5a,5b,6,7,7a,8,11,11a,11b,12,13,13a,13b-octadecahydro-1H-cyclopenta[a]chrysen-9-yl)cyclohex-3-enecarboxylic acid]
[1]; [3]
  EC50: 0.129 µM
[2]; [4]
  EC50: 0.00253 µM

## C=C(C)[C@@H]1CC[C@]2(NCCN3CCC(C(=O)O)(C(=O)O)CC3)CC[C@]3(C)[C@H](CC[C@@H]4[C@@]5(C)CC=C(C6=CC[C@@](CF)(C(=O)O)CC6)C(C)(C)[C@@H]5CC[C@]43C)[C@@H]12 [Example 16, 1-(2-(((1R,3aS,5aR,5bR,7aR,11aS,11bR,13aR,13bR)-9-((R)-4-carboxy-4-(fluoromethyl)cyclohex-1-en-1-yl)-5a,5b,8,8,11a-pentamethyl-1-(prop-1-en-2-yl)-2,3,3a,4,5,5a,5b,6,7,7a,8,11,11a,11b,12,13,13a,13b-octadecahydro-1H-cyclopenta[a]chrysen-3a-yl)amino)ethyl)piperidine-4,4-dicarboxylic acid]
[1]; [3]
  EC50: 3 µM
[2]; [4]
  EC50: 0.43 µM

## C=C(C)[C@@H]1CC[C@]2(NCC(=O)N3CCC(S(C)(=O)=O)C3)CC[C@]3(C)[C@H](CC[C@@H]4[C@@]5(C)CC=C(C6=CC[C@](CF)(C(=O)O)CC6)C(C)(C)[C@@H]5CC[C@]43C)[C@@H]12 (stereo partly drawn) [Example 36, (1S)-1-(fluoromethyl)-4-((1R,3aS,5aR,5bR,7aR,11aS,11bR,13aR,13bR)-5a,5b, 8,8,11a-pentamethyl-3a-((2-(3-(methylsulfonyl)pyrrolidin-1-yl)-2-oxoethyl)amino)-1-(prop-1-en-2-yl)-2,3,3a,4,5,5a,5b,6,7,7a,8,11,11a,11b,12,13,13a,13b-octadecahydro-1H-cyclopenta[a]chrysen-9-yl)cyclohex-3-enecarboxylic acid]
[1]; [5]
  EC50: > 0.05 µM
[2]; [6]
  EC50: < 0.05 µM

## C=C(C)[C@@H]1CC[C@]2(NCCC(O)(CC)CC)CC[C@]3(C)[C@H](CC[C@@H]4[C@@]5(C)CC=C(C6=CC[C@](CF)(C(=O)O)CC6)C(C)(C)[C@@H]5CC[C@]43C)[C@@H]12 [Example 2-4, (S)-4-((1R,3aS,5aR,5bR,7aR,11aS,11bR,13aR,13bR)-3a-((3-ethyl-3-hydroxypentyl)amino)-5a,5b,8,8,11a-pentamethyl-1-(prop-1-en-2-yl)-2,3,3a,4,5,5a,5b,6,7,7a,8,11,11a,11b,12,13,13a,13b-octadecahydro-1H-cyclopenta[a]chrysen-9-yl)-1-(fluoromethyl)cyclohex-3-enecarboxylic acid]
[1]; [5]
  EC50: > 0.05 µM
[2]; [6]
  EC50: < 0.05 µM

## C=C(C)[C@@H]1CC[C@]2(NCCN3CCS(=O)(=O)CC(C)C3)CC[C@]3(C)[C@H](CC[C@@H]4[C@@]5(C)CC=C(C6=CC[C@@](CF)(C(=O)O)CC6)C(C)(C)[C@@H]5CC[C@]43C)[C@@H]12 (stereo partly drawn) [Example 26, (1R)-1-(fluoromethyl)-4-((1R,3aS,5aR,5bR,7aR,11aS,11bR,13aR,13bR)-5a,5b,8,8,11a-pentamethyl-3a-((2-(6-methyl-1,1-dioxido-1,4-thiazepan-4-yl)ethyl)amino)-1-(prop-1-en-2-yl)-2,3,3a,4,5,5a,5b,6,7,7a,8,11,11a,11b,12,13,13a,13b-octadecahydro-1H-cyclopenta[a]chrysen-9-yl)cyclohex-3-enecarboxylic acid]
[1]; [5]
  EC50: > 0.05 µM
[2]; [6]
  EC50: < 0.05 µM
